Laboratory results: US20110009616A1, “AGENT FOR PREVENTING ARTERIOSCLEROSIS” (priority 2006, published 2011)

Key:
[1] = molecular target: T1, bLOX-1 (Bos taurus, UniProt P79391); assay: Plate assay: binding of oxidized LDL to recombinant bLOX-1 (Test Example 1); parameters: 6xHis (N); made in house; host or cells: E. coli; species or system bovine; details: final concentration of 16 μM, FIG. 1; for binding rate of oxidized LDL to bLOX-1 (inhibition of binding): control without compounds = 100
Method: A LOX-1 antagonist activity of the agent for preventing arteriosclerosis obtained in the above-mentioned Example was evaluated on a LOX-1 binding inhibition rate to oxidized LDL using a recombinant LOX-1 protein obtained from E. coli.
As for the recombinant LOX-1, in cDNA of LOX-1 derived from bovine (bLOX-1) or derived from human (hLOX-1), a sequence to the C-terminal removing a transmembrane region was inserted into a pQE30 vector having a 6-histidine tag sequence (6×His) at the N-terminal (manufactured by Qiagen) so as to have a sequence aligned to a translation frame. The vector was transformed into E. coli able to be controlled by T5 promoter and the expression of each LOX-1 was induced under induction of 1 m M of isopropyl-1-thio-β-D-[…] (IPTG). After the induction of each expression at 37° C. for 3 hours, since the recombinant LOX-1 was obtained from an insoluble fraction, E. coli was lysed in a buffer containing 6 M guanidine hydrochloride and purified by affinity column chromatography using a Ni-NTA agarose column (manufactured by Qiagen) as the marker of 6×His (solvent: phosphoric acid buffer). Furthermore, each of the elution fractions containing LOX-1 was dialyzed in a 20 mM tris buffer (pH 9.0) and a 8M urea containing buffer, applied to a HiTrap Q column, an anion exchanger, (manufactured by Amersham), and eluted and purified with a linear concentration gradient of NaCl. Each of the fractions containing LOX-1 obtained above was reduced in a buffer containing excess amount of DTT (dithiothreitol), and then intramolecular S-S bonds were unwinded by a redox system using a mixture of oxidized […] low molecular thiol compounds. Each LOX-1 obtained above has a binding ability to the oxidized LDL and will be used as a LOX-1 standard for the following plate assays.
The plate assay was carried out using MaxiSorp Immuno Plate (96-well type, manufactured by NUNC). Each LOX-1 purified above was prepared with a PBS buffer so as to be 5 μg/mL, and 100 μL of the solution was applied to each well. After leaving at 4° C. overnight, each well was washed with 400 μL of a PBS buffer twice (400 μL×2) and 300 μL of a PBS buffer containing 25% BlockAce (manufactured by Dainippon Sumitomo Pharma Co., Ltd.) was applied to each well. After leaving at 4° C. overnight, each well was washed with 400 μL of a PBS buffer twice (400 μL×2), a solution of ethyl pheophorbide a was prepared with a PBS buffer containing 1% bovine serum albumin (BSA) so as to have an appropriate dilution rate, and 100 μL of the solution was applied to each well. After leaving at 4° C. overnight, each well was washed with 400 μL of a PBS buffer three times (400 μL×3), a solution of oxidized LDL was prepared with a PBS buffer so as to be 5 μg/mL, and 100 μL of the solution was applied to eachr well. After leaving at 4° C. overnight, each well was washed with 400 μL of a PBS buffer three times (400 μL×3), a horseradish peroxidase-conjugated anti-apolipoprotein B antibody (manufactured by The Binding Site) was diluted 1000 times with a PBS buffer, and 100 μL of the solution was applied to each well. After leaving at room temperature for 2 hours, each well was washed with 400 μL of a PBS buffer five times (400 μL×5), and 100 μL of a 3,3′,5,5′-tetramethylbenzidine (TMB) peroxidase-enzyme immunoassay (EIA)-substrate-kit reagent (manufactured by Bio-Rad) was applied to each well. After an appropriate reaction period, 50 μL of 2M H2SO4 was applied to each well to stop the reaction. Finally, a LOX-1 antagonist activity (an oxidized LDL binding inhibition rate to LOX-1) was determined by detection at 450 nm.
Target sequence in this assay (P79391 57-270 limits assumed): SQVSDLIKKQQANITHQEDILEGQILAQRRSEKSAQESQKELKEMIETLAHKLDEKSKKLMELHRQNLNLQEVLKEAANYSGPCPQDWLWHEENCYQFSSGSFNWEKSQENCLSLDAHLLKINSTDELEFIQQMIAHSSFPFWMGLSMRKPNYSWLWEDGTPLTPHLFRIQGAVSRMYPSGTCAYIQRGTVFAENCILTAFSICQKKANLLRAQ

[2] = system: living cells (mitochondria activity); assay: Cytotoxicity, number of living cells by Cell counting Kit-8 (WST-8) (Example 5); type: cell-based; details: 7 hours with compound; concentrations where the inhibitory activities were effective; results not shown
Method: In order to examine cytotoxicities of the compounds in Examples 1 to 4 and Comparative Examples 1 to 9, the number of living cells was measured as follows. As a method for measuring the number of living cells, a MTT method using a reduction of MTT (3-(4,5-dimethyl-2-thiazolyl)-2,5-diphenyltetrazolium bromide) to formazan (formed as a poorly soluble precipitate) by dehydrogenase in mitochondria, and the like, are generally used. Thus, “Cell counting Kit-8” (manufactured by Dojindo Laboratories, WST-8 which forms a water soluble formazan is used instead of MTT), a modified method of the MTT method, was used for the measurement of the number of living cells. Specifically, 100 μL of cells were seeded into inner 60 wells of a 96-well plate (manufactured by Falcon) so as to be 3.0×10^4 cells/mL, respectively (in order to avoid temperature variation, 100 μL of a culture medium was only added into the outer 36 wells). After cultivating for 2 days (37° C.), 50 μL of the culture supernatant was removed and 50 μL of a new culture medium containing each compound with an appropriate dilution rate was added. After adding the new culture medium containing each compound, the cells were cultivated for 7 hours. After 7 hours, each well was washed with 100 μL of the culture medium without the compounds three times, and then 3 μL of a culture medium containing “WST-8”, a “Cell counting Kit-8” solution, was added to each well. After cultivating for 1 hour, absorbance at 450 nm of each culture medium was measured and converted to the number of living cells. It is considered that three washing operations in the process omit the effect of the compounds in the external solution on the absorbance.

[3] = molecular target: T1, bLOX-1; assay: Fluorescently labeled oxidized LDL uptake into CHO cells stably expressing bLOX-1 (Examples 6, 7); type: cell-based, bovine; parameters: By a positive screening using a full-length bLOX cDNA; expressed in transfected cells; details: Example 7; FIG. 6
Target sequence in this assay (P79391 whole entry): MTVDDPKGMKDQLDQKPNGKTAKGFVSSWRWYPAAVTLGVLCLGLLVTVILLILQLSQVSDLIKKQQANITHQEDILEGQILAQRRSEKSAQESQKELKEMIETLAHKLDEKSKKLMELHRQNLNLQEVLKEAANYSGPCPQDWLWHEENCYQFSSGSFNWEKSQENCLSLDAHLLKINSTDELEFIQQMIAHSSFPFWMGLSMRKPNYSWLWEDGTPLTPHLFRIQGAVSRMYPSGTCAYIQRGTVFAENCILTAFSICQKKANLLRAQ

binding rate of oxidized LDL to bLOX-1 (inhibition of binding) [1]	Compound	inhibition activity on binding of oxidized LDL to bLOX-1 (ranking among actives) [1]	cytotoxicity (number of living cells) [2]	inhibition of DiI-OxLDL uptake in CHO cells expressing bLOX, compared with inhibition of CTB uptake [3]
	C[C@@H]1[C@H](O)[C@@H](C)/C=C/C=C/CC/C=C/C=C/C=C/C=C/C(O[C@H]2O[C@H](C)[C@@H](O)[C@H](N)[C@@H]2O)CC2O[C@](O)(CC(O)C(O)CCC(O)CC(O)CC(O)CC(=O)O[C@H]1C)CC(O)C2C(=O)O (stereo partly drawn) [nystatin, Nystatin]			nearly equal to that of CTB
inhibit the binding significantly	hematoporphyrin	high inhibition activities	did not show the cytotoxicity	
inhibit the binding significantly	uroporphyrin III		did not show the cytotoxicity	

Compound	binding rate of oxidized LDL to bLOX-1 (inhibition of binding) [1]	inhibition activity on binding of oxidized LDL to bLOX-1 (ranking among actives) [1]	cytotoxicity (number of living cells) [2]	inhibition of DiI-OxLDL uptake in CHO cells expressing bLOX, compared with inhibition of CTB uptake [3]
C=CC1=C(C)c2cc3[nH]c(c4c5nc(cc6[nH]c(cc1n2)c(C)c6CC)C(C)=C5C(=O)C4C(=O)OC)C(CCC(=O)OCC)C3C (stereo not drawn) [ethyl pheophorbide a]	inhibit the binding significantly	high inhibition activities	did not show the cytotoxicity	
